Experimental data published in publication PMC11003925, “Antimicrobial activity and properties of de novo design of short synthetic lipopeptides” (Folia Microbiologica, 2024).
Values after ≈ are worked out from the molar mass of the structure shown. Read-outs that look alike come from different tables or passages of the source. Residues, ends and D or L forms follow the SMILES beside them. *: point of attachment. Lithocholoyl = C[C@H](CCC(=O)*)[C@H]1CC[C@H]2[C@@H]3CC[C@@H]4C[C@H](O)CC[C@]4(C)[C@H]3CC[C@]12C

Key:
[1] = system: DNA; settings: ref Ball et al. [2004]; cited from earlier work
Source text: The majority of the known antimicrobial peptides have been isolated from natural sources. Recently genomic and proteomic methods have also been applied for peptide identification. Knowledge obtained by both classical and novel methods can be used to design the chemical synthesis of new peptide compounds with biological properties. The sequence analysis of natural antimicrobial peptides led to a template, with which it is possible to generate active AMPs (Tossi et al. [1997]; Giangaspero et al. [2001]; Tossi et al. [2000]). We designed three scrambled hexapeptides, one according to this templat ...

[2] = system: E. coli DBM 3001; format: cell-based; settings: DBM 3001, 25 h
Method: (§1) A Bioscreen C automated microbiology growth curve analysis system (Growth Curves, Piscataway, NJ, USA) was used for the quantitative determination of antimicrobial activity (minimal inhibitory concentration, MIC) of PAL/LCA-peptides. Optical density was measured with a wide bandpass filter (wavelength range 420–580 nm) at regular intervals and temperatures. This assay was performed in a special microtiter plate (10 × 10 wells) that allowed the simultaneous testing of a large number of samples against several microorganisms. The total testing volume was 100 µL, obtained by mixing 10 µL of microbial culture with OD600 equal to 0.1 with growth medium and a solution of the tested compounds. The positive controls were vancomycin and tetracycline for Bacillus subtilis (100 µg/mL) for Gram-positive bacteria, kanamycin, and tetracycline for Acinetobacter baumannii (100 µg/mL) for Gram-negative bacteria, and clotrimazole or amphotericin (100 µg/mL) for fungi. The maximal concentration of tested lipoproteins was 1 mg/mL. A pure growth medium was used as the negative control. The measurement period was 25 h. The lowest concentration with a 100% inhibition effect for 24 h of incubation was chosen as the MIC. The antibacterial activity of each compound was expressed as the minimum inhibitory concentration MIC (MIC is the lowest concentration of the compound needed to inhibit the growth of bacterial cells) and IC50 (IC50 is the concentration of the compound needed to inhibit the growth of bacterial cells by 50%).

[3] = system: E. faecalis DBM 3075; format: cell-based; settings: for IC50: DBM 3075, 25 h
Method: as §1

[4] = system: Ps. aeruginosa DBM 3081; format: cell-based, Pseudomonas aeruginosa; settings: 25 h
Method: as §1

[5] = system: B. subtilis DBM 3006; format: cell-based, Bacillus subtilis; settings: for MIC: DBM 3006, 24 h; for IC50: DBM 3006, 25 h
Method: as §1

[6] = system: M. luteus DBM 3053; format: cell-based, Micrococcus luteus; settings: for MIC: DBM 3053, 24 h; for IC50: DBM 3053, 25 h
Method: as §1

[7] = system: Staph. aureus DBM 3002; format: cell-based, Staphylococcus aureus; settings: for MIC: 24 h; for IC50: 25 h
Method: as §1

[8] = system: Staph. aureus MRSA1; format: cell-based, Staphylococcus aureus; settings: for MIC: 24 h; for IC50: 25 h
Method: as §1

[9] = system: C. tropicalis DBM 2166; format: cell-based, Candida tropicalis; settings: for IC50: DBM 2166, 25 h
Method: as §1

[10] = system: Staph. aureus MRSA1; format: cell-based, Staphylococcus aureus; settings: 2xMIC, 37 °C
Method: This assay was used to determine how quick the effect of PAL/LCA-peptides is on bacteria, as well as whether the activity of these compounds is dependent on the presence of active bacterial metabolism (Kamysz et al. [2007]). The bacterial cultures were incubated overnight at 37 °C in Mueller–Hinton’s broth 2 or potassium phosphate buffer (0.1 M, pH 7). Cultures were diluted to OD600 equal to 0.1 and divided into 2 samples, and the final volume of each sample was 1 mL; after that, they were centrifuged (5000 × g, 10 min) to collect bacteria. […] The samples were incubated at 37 °C. At specific time intervals, samples of bacterial suspension were taken, diluted, and spread on Petri dishes with Mueller–Hinton’s agar to count the number of surviving cells as colony-forming units (CFU). The whole experiment lasted 24 h.

[11] = system: bacterial membrane; assay: Membrane disruption (released lactate dehydrogenase activity); format: cell-based, Staphylococcus aureus; settings: 1 h incubation at 37 °C, LDH kit, triplets
Method: The disruption of the microbial membrane was followed by the detection of lactate dehydrogenase activity released from the intracellular space using a Cytotoxicity Detection Kit (LDH) from Roche (Korzeniewski and Callewaert [1983]; Macurkova et al. [2014]) after 1 h incubation at 37 °C with the PAL/LCA-peptide. The culture supernatant was collected and incubated with the reaction mixture from the kit. In the first step, NAD^+ is reduced to NADH + H^+ by the LDH-catalyzed conversion of lactate to pyruvate. In the second step, the catalyst (diaphorase) transfers H/H^+ from NADH + H^+ to the tetrazolium salt 2-(4-iodophenyl)-3-(4-nitrophenyl)-5-phenyl-2H-tetrazolium chloride (INT), which is reduced to formazan. The formazan dye formed is red and water-soluble and gives a broad absorption maximum at 500 nm. An increase in the amount of dead or plasma membrane-damaged cells results in an increase in the LDH activity in the cell culture supernatant.
To determine the degree of damage to the cell membrane (%) by the tested substances, averages of absorbances (triplets) were calculated from the measured values for the samples, controls, and pure medium. Subsequently, the absorbance average for the clean medium (background) was subtracted from all averages obtained in this way. The degree of damage to the cell membrane by the tested substances was expressed as follows: membranedamage%=((AVZ-∅ANK)/(∅APK-ANK))∙100 ∅AVZ⋯averageabsorbanceofsample ∅ANK⋯averageabsorbanceofnegativecontrol ∅APK⋯averageabsorbanceofpositivecontrol

[12] = system: Staph. aureus; assay: Transmission electron microscopy of treated bacteria; format: cell-based, Staphylococcus aureus; settings: 1 to 4 h incubation; media with (Mueller–Hinton broth 2) and without nutrients (potassium phosphate buffer)
Method: Pictures of damaged bacterial cells were obtained by transmission electron microscopy after 1 to 4 h of incubation. Cells of the Gram-positive bacterial strains were not stained. A JEOL JEM-1010 transmission electron microscope (JEOL, Tokyo, Japan) equipped with a MegaView III CCD camera was used for visualization, and evaluation was performed with the program for image analysis AnalySIS software v. 2.0 (Soft Imaging Systems). The samples were plated on a carbon-coated electron microscopic grid and observed with an accelerating voltage of 80 kV.

[13] = system: HEK293T; assay: Cytotoxicity assay (xCELLigence impedance); format: cell-based, human; settings: 24 h exposure
Method: (§2) Experiments were carried out using an xCELLigence RTCA DP Instrument (Roche Diagnostics GmbH, Mannheim, Germany) which was placed into an incubator (37 °C and 5% CO2). Cell proliferation and cytotoxicity experiments were performed using modified 16-well plates (E-plate, Roche Diagnostics GmbH, Mannheim, Germany). Microelectrodes were attached to the bottom of the wells for the impedance-based detection of attachment, spreading, and proliferation of the cells (Stoddart [2011]). This system monitors cellular events in real time without the incorporation of labels by measuring electrical impedance across an interdigitated microelectrode integrated into the bottom of this special tissue culture plate. This impedance measurement improves upon conventional endpoint assays and provides quantitative information about the biological status of the cells, including cell number, adhesion, viability, and morphology. Ninety microliters of cultivation medium was used for the blank sample, and subsequently, 100 µL of HepG2 or HEK293T cell suspension (7 × 10^5 cells/mL) was added and placed into the incubator (37 °C, 95% humidity, 5% CO2). […] Chrysophsin-3 at a concentration of 100 µg/mL was used as a positive control and solvent (deionized water) as a negative control. Subsequent incubation was performed for at least an additional 24 h. The result of the measurement was viability curves. After the measurement, percentages of tissue culture growth inhibition were calculated for all the tested substances, as follows: %inhibition=(1-(ΔϕCIsample)/(ΔϕCIcontrol))·100
(§3) Δ∅CIsample … the difference between the first and last average CI (cell index) values of the tissue culture in the presence of the tested sample.
(§4) Δ∅CIcontrol … the difference between the first and last average CI values of the tissue culture itself.

[14] = system: HepG2; assay: Cytotoxicity assay (xCELLigence impedance); format: cell-based, human; settings: for % inhibition: 24 h exposure
Method: as §2, §3, §4

[15] = system: A. baumannii DBM 3183; assay: microbe, parasite or virus in culture; format: cell-based, Acinetobacter baumannii; settings: DBM 3183, 25 h
Method: as §1

[16] = system: plasmid pBluescript II KS-; assay: DNA binding assay (gel retardation); settings: 50 ng DNA, 1 h room temperature, 1% agarose gel
Method: This assay was performed as described by Park et al. ([1998]), with a few modifications. […] The reaction mixture was incubated at room temperature for 1 h. Subsequently, 4 µL of native loading buffer (10% Ficol, 10 mM Tris–HCl (pH 7.5), 50 mM EDTA, 0.25% bromophenol blue) was added. An aliquot was applied to 1% agarose gel electrophoresis in 0.5xTris borate-EDTA buffer. Circular plasmid DNA was isolated from (Luria–Bertani medium with AMPI in final concentration 100 µg/mL) bacterial strain E. coli DH5α / pBluescriptII KS- that had been grown overnight, and linearization was performed overnight by enzymatic reaction using restriction endonuclease EcoRV at 37 °C. The evaluation was performed by visualizing the DNA with the intercalation dye Midori Green Advanced DNA Stain under UV light. Reduced electrophoretic mobility compared to the control is considered to be evidence of peptide binding to DNA.
According to the previous results, we decided to clarify one of the possible molecular interaction mechanisms, the ability of the studied lipopeptides to bind microbial plasmid DNA. Based on the assumption that pore formation is only one of the influencing factors, which arose from previous results, the effect on one of the possible intracellular targets, DNA, was determined. This determination was carried out on isolated plasmid DNA, specifically on two plasmids, pGreen 0029 and pBluescript II KS- in circular and linearized form.

SMILES: C[C@H](CCC(=O)O)[C@H]1CC[C@H]2[C@@H]3CC[C@@H]4C[C@H](O)CC[C@]4(C)[C@H]3CC[C@]12C [LCA, lithocholic acid]
- concentration range in which mutagenic factor [1]: 200 to 400 µM

SMILES: CC(C)C[C@H](NC(=O)CC[C@@H](C)[C@H]1CC[C@H]2[C@@H]3CC[C@@H]4C[C@H](O)CC[C@]4(C)[C@H]3CC[C@]12C)C(=O)N[C@H](C(=O)N[C@@H](CCCCN)C(=O)N[C@@H](CCCNC(=N)N)C(=O)N[C@@H](C)C(=O)NCC(N)=O)C(C)C [SHP-1.3, LCA-LVKRAG-NH2] (Lithocholoyl-LVKRAG-NH2)
- IC50 [2]: N / > 100.0 µg/mL
- MIC ([3]; DBM 3075, 24 h): 71.5 µg/mL (≈ 71.5 µM)
- IC50 [3]: 100.0 µg/mL (≈ 100 µM)
- IC50 [4]: N / > 100.0 µg/mL
- MIC [5]: 31.5 µg/mL (≈ 31.5 µM)
- IC50 [5]: 40.0 µg/mL (≈ 40 µM)
- MIC [6]: 5.5 µg/mL (≈ 5.5 µM)
- IC50 [6]: 10.0 µg/mL (≈ 10 µM)
- MIC [7]: 33.0 µg/mL (≈ 33 µM)
- IC50 [7]: 50.0 µg/mL (≈ 50 µM)
- MIC [8]: 30.6 µg/mL (≈ 30.6 µM)
- IC50 [8]: 50.0 µg/mL (≈ 50 µM)
- IC50 [9]: 30.0 µg/mL (≈ 30 µM)
- MIC ([9]; first value of cell 'MIC / IC50', 100% inhibition for 24 h): 10.3 µg/mL (≈ 10.3 µM)
- bacteria killed within half an hour ([10]; about 10^7 cells, SHP-1.2 only in medium with nutrients, SHP-1.3 in both media): 100%
- killing activity (%) ([10]; KP (potassium phosphate buffer, without nutrients)): 100 ± 18%
- killing activity (%) ([10]; MHB (Mueller–Hinton broth II, with nutrients)): 100 ± 12%
- Membrane damage (%) ([11]; KP (potassium phosphate buffer)): 30 ± 5%
- Membrane damage (%) ([11]; MHB (Mueller–Hinton broth II)): 0 ± 5%
- morphological effect on bacterial cells (TEM) [12]: damaging cellular envelopes
- % inhibition ([13]; c 50 µg/mL): 63.8 ± 9.6%
- % inhibition ([13]; c 100 µg/mL): 72.0 ± 10.8%
- % inhibition ([13]; c 200 µg/mL): 84.1 ± 12.6%
- % inhibition ([14]; c 50 µg/mL): 57.4 ± 8.6%
- % inhibition ([14]; c 100 µg/mL): 92.8 ± 13.9%
- % inhibition ([14]; c 200 µg/mL): 97.8 ± 14.7%
- efficiency on HepG2 cells ([14]; concentration not given): 97%

SMILES: CC(C)C[C@H](NC(=O)CC[C@@H](C)[C@H]1CC[C@H]2[C@@H]3CC[C@@H]4C[C@H](O)CC[C@]4(C)[C@H]3CC[C@]12C)C(=O)N[C@H](C(=O)N[C@@H](CCCCN)C(=O)NCC(=O)N[C@@H](C)C(=O)N[C@@H](CCCNC(=N)N)C(N)=O)C(C)C [SHP-2.3, LCA-LVKGAR-NH2] (Lithocholoyl-LVKGAR-NH2)
- IC50 [15]: N / > 100.0 µg/mL
- IC50 [2]: N / > 100.0 µg/mL
- IC50 [3]: N / > 100.0 µg/mL
- IC50 [4]: N / > 100.0 µg/mL
- MIC [5]: 6.9 µg/mL (≈ 6.9 µM)
- IC50 [5]: 20.0 µg/mL (≈ 20 µM)
- MIC [6]: 1.6 µg/mL (≈ 1.6 µM)
- IC50 [6]: 5.0 µg/mL (≈ 5 µM)
- MIC [7]: 31.9 µg/mL (≈ 31.9 µM)
- IC50 [7]: 50.0 µg/mL (≈ 50 µM)
- MIC [8]: 25.1 µg/mL (≈ 25.1 µM)
- IC50 [8]: 50.0 µg/mL (≈ 50 µM)
- MIC ([9]; DBM 2166, 24 h): 56.4 µg/mL (≈ 56.4 µM)
- IC50 [9]: 75.0 µg/mL (≈ 75 µM)
- weight ratio lipopeptide:DNA influencing electrophoretic mobility ([16]; circular plasmid): 10.0
- weight ratio lipopeptide:DNA influencing electrophoretic mobility ([16]; linearized plasmid): 10.0
- morphological effect on bacterial cells (TEM) [12]: damaging cellular envelopes
- % inhibition ([13]; c 50 µg/mL): 25.6 ± 3.8%
- % inhibition ([13]; c 100 µg/mL): 42.2 ± 6.3%
- % inhibition ([13]; c 200 µg/mL): 85.1 ± 12.8%
- % inhibition ([14]; c 50 µg/mL): 7.4 ± 1.1%
- % inhibition ([14]; c 100 µg/mL): 0.0 ± 2.2%
